One experiment relates to KAI1 promoter. The experiment can be described thus: KAI1 promoter luciferase reporter assay in transfected Caco2 cells. As to conditions: Homo sapiens, Caco-2, 16 h, 1 μM compound, 16 hours, transfected Caco2 cells, luciferase activity relative to DMSO control (=1); read-out: Relative KAI promoter activity. The format is cell-based, human. (In a reporter assay the amount or activity of a reporter protein is the signal.)

Experiment [1] has as its system invasion of colorectal cancer cells. The experiment can be described thus: In vivo relative invation (invasion; EV and KITENIN controls, no method described). As to conditions: relative to EV (=1); KIT = KITENIN.

From patent publication US20230150924A1, “NOVEL COMPOUND HAVING CANCER METASTASIS INHIBITORY ACTIVITY, PREPARATION METHOD THEREFOR, AND PHARMACEUTICAL COMPOSITION FOR INHIBITING CANCER METASTASIS AND INVASION OR TREATING COLORECTAL CANCER, COMPRISING COMPOUND” (CELLGENTEK CO., LTD., priority 2019, published 2023) come the findings set out here.

Consider `O=C(COc1ccccc1C(=O)NCC(=O)c1ccccc1)Nc1ccc(F)c([N+](=O)[O-])c1` [Example 211], for which the fold induction at 1 µM in the experiment on KAI1 promoter worked out at 1.44. Also, in experiment [1], the “In vivo relative invation” value is 0.8699.

Regarding `O=C(COc1ccccc1C(=O)NCC(=O)c1ccccc1)NCc1ccc2c(c1)OCO2` [Example 212], the fold induction at 1 µM in the experiment on KAI1 promoter is 1.01. The “In vivo relative invation” value in experiment [1] stood at 1.219.

As to `CCCc1ccc(NC(=O)COc2ccccc2C(=O)NCC(=O)c2ccccc2)cc1` [Example 213, 2-(2-oxo-2-((4-propylphenyl)amino)ethoxy)-N-(2-oxo-2-phenylethyl)benzamide], the fold induction at 1 µM with KAI1 promoter was found to be 1.14. In addition, the “In vivo relative invation” value in experiment [1] was found to be 1.209.

Take `COc1ccc(CNC(=O)COc2ccccc2C(=O)NCC(=O)c2ccccc2)cc1OC` [Example 215, 2-(2-((3,4-dimethoxybenzyl)amino)-2-oxoethoxy)-N-(2-oxo-2-phenylethyl)benzamide]: the fold induction at 1 µM in the experiment on KAI1 promoter came to 0.975. Besides, the “In vivo relative invation” value in experiment [1] was 1.304.

Take `COc1ccc(NC(=O)COc2ccccc2C(=O)NCC(=O)c2ccccc2)cc1OC` [Example 216, 2-(2-((3,4-dimethoxyphenyl)amino)-2-oxoethoxy)-N-(2-oxo-2-phenylethyl)benzamide]: in the experiment on KAI1 promoter, the fold induction at 1 µM was 1.2. Moreover, the “In vivo relative invation” value in experiment [1] came out at 1.255.

As to `O=C(COc1ccccc1C(=O)NCC(=O)c1ccccc1)Nc1ccc2c(c1)OCO2` [Example 217, 2-(2-(benzo [d] [1,3]dioxol-5-ylamino)-2-oxoethoxy)-N-(2-oxo-2-phenylethyl)benzamide], the fold induction at 1 µM in the experiment on KAI1 promoter is 1.18. Also, the “In vivo relative invation” value in experiment [1] was 1.266.

For `O=C(COc1ccccc1C(=O)NCC(=O)c1ccccc1)Nc1ccc2c(c1)OCCO2` [Example 218, 2-(2-((2,3-dihydrobenzo[b] [1, 4]dioxin-6-yl)amino)-2-oxoethoxy)-N-(2-oxo-2-phenylethyl)benzamide], the fold induction at 1 µM with KAI1 promoter was 1.33. Besides, in experiment [1], the “In vivo relative invation” value was 1.169.

In the case of `O=C(COc1ccccc1C(=O)NCC(=O)c1ccccc1)Nc1ccc2c(c1)CCC2` [Example 219, 2-(2-((2,3-dihydro-1H-inden-5-yl)amino)-2-oxoethoxy)-N-(2-oxo-2-phenylethyl)benzamide], the fold induction at 1 µM with KAI1 promoter was determined as 1.27. Also, the “In vivo relative invation” value in experiment [1] is recorded as 1.145.

With `CC(C)Oc1cccc(NC(=O)COc2ccccc2C(=O)NCC(=O)c2ccccc2)c1` [Example 220, 2-(2-((3-isopropoxyphenyl)amino)-2-oxoethoxy)-N-(2-oxo-2-phenylethyl)benzamide], the fold induction at 1 µM with KAI1 promoter worked out at 1.15. For the same molecule, the “In vivo relative invation” value in experiment [1] was 0.9324.

Regarding `O=C(COc1ccccc1C(=O)NCC(=O)c1ccccc1)Nc1ccc(Oc2ccccc2)cc1` [Example 221, 2-(2-oxo-2-((4-phenoxyphenyl)amino)ethoxy)-N-(2-oxo-2-phenylethyl)benzamide], the fold induction at 1 µM in the experiment on KAI1 promoter is 0.961. In experiment [1], the “In vivo relative invation” value is on record as 1.322.

Consider `O=C(COc1ccccc1C(=O)NCC(=O)c1ccccc1)Nc1cc(C(F)(F)F)ccc1F` [Example 222, 2-(2-((2-fluoro-5-(trifluoromethyl)phenyl)amino)-2-oxoethoxy)-N-(2-oxo-2-phenylethyl)benzamide], for which, in the experiment with KAI1 promoter, the fold induction at 1 µM was determined as 1.2. In addition, the “In vivo relative invation” value in experiment [1] came out at 1.275.

For the molecule `O=C(COc1ccccc1C(=O)NCC(=O)c1ccccc1)Nc1cccc(O)c1` [Example 223, 2-(2-((3-hydroxyphenyl)amino)-2-oxoethoxy)-N-(2-oxo-2-phenylethyl)benzamide], in the experiment with KAI1 promoter, the fold induction at 1 µM came to 1.1. In experiment [1], the “In vivo relative invation” value came to 1.195.

Take `O=C(COc1ccccc1C(=O)NCC(=O)c1ccccc1)Nc1ccccc1Cl` [Example 224, 2-(2-((2-chlorophenyl)amino)-2-oxoethoxy)-N-(2-oxo-2-phenylethyl)benzamide]: the fold induction at 1 µM in the experiment with KAI1 promoter was 1.13. In addition, the “In vivo relative invation” value in experiment [1] was 1.25.

For `O=C(COc1ccccc1C(=O)NCC(=O)c1ccccc1)Nc1cccc(Br)c1` [Example 225, 2-(2-((3-bromophenyl)amino)-2-oxoethoxy)-N-(2-oxo-2-phenylethyl)benzamide], in the experiment with KAI1 promoter, the fold induction at 1 µM came to 1.35. In addition, the “In vivo relative invation” value in experiment [1] is listed as 1.235.

Turning to `CC(C)NC(=O)COc1ccccc1C(=O)NCC(=O)c1ccccc1` [Example 226, 2-(2-(isopropylamino)-2-oxoethoxy)-N-(2-oxo-2-phenylethyl)benzamide], the fold induction at 1 µM with KAI1 promoter turned out to be 1.09. Further, the “In vivo relative invation” value in experiment [1] turned out to be 1.349.

As to `O=C(CNC(=O)c1ccccc1OCC(=O)N1CCc2ccccc2C1)c1ccccc1` [Example 227, 2-(2-(3,4-dihydroisoquinolin-2 (1H)-yl)-2-oxoethoxy)-N-(2-oxo-2-phenylethyl)benzamide], the fold induction at 1 µM with KAI1 promoter worked out at 1.01. Besides, the “In vivo relative invation” value in experiment [1] is recorded as 1.153.

Turning to `CCCNC(=O)COc1ccccc1C(=O)NCC(=O)c1ccccc1` [Example 228], the fold induction at 1 µM in the experiment with KAI1 promoter came to 0.982. Besides, the “In vivo relative invation” value in experiment [1] is given as 1.278.

As to `CC(C)CCNC(=O)COc1ccccc1C(=O)NCC(=O)c1ccccc1` [Example 229, 2-(2-(isopentylamino)-2-oxoethoxy)-N-(2-oxo-2-phenylethyl)benzamide], in the experiment on KAI1 promoter, the fold induction at 1 µM came to 1.06. Also, in experiment [1], the “In vivo relative invation” value stood at 1.245.

In the case of `O=C(COc1ccccc1C(=O)NCC(=O)c1ccccc1)NC1CCCCC1` [Example 230, 2-(2-(cyclohexylamino)-2-oxoethoxy)-N-(2-oxo-2-phenylethyl)benzamide], the fold induction at 1 µM with KAI1 promoter is 1.08. The “In vivo relative invation” value in experiment [1] amounted to 1.267.

Consider `CN(C)Cc1cccc(C(=O)NCC(=O)c2ccccc2)c1` [Example 231, 3-((dimethylamino)methyl)-N-(2-oxo-2-phenylethyl)benzamide], for which the fold induction at 1 µM in the experiment on KAI1 promoter was 1.56. In addition, in experiment [1], the “In vivo relative invation” value worked out at 1.122.

Consider `O=C(CNC(=O)c1cccc(CN2CCc3ccccc3C2)c1)c1ccccc1` [Example 232, 3-((3,4-dihydroisoquinolin-2 (1H)-yl)methyl)-N-(2-oxo-2-phenylethyl)benzamide], for which the fold induction at 1 µM in the experiment with KAI1 promoter was 1.23. In addition, in experiment [1], the “In vivo relative invation” value is recorded as 1.125.

As for `CC(C)N(C)Cc1cccc(C(=O)NCC(=O)c2ccccc2)c1` [Example 233, 3-((isopropyl(methyl)amino)methyl)-N-(2-oxo-2-phenylethyl)benzamide], in the experiment with KAI1 promoter, the fold induction at 1 µM was 1.15. Also, in experiment [1], the “In vivo relative invation” value is 1.026.

Take `O=C(CNC(=O)c1cccc(CN2CCN(c3ncccn3)CC2)c1)c1ccccc1` [Example 235, N-(2-oxo-2-phenylethyl)-3-((4-(pyrimidin-2-yl)piperazin-1-yl)methyl)benzamide]: the fold induction at 1 µM with KAI1 promoter was 1.44. The “In vivo relative invation” value in experiment [1] is reported as 1.133.

As for `COc1ccccc1N1CCN(Cc2cccc(C(=O)NCC(=O)c3ccccc3)c2)CC1` [Example 236, 3-((4-(2-methoxyphenyl)piperazin-1-yl)methyl)-N-(2-oxo-2-phenylethyl)benzamide], the fold induction at 1 µM in the experiment with KAI1 promoter worked out at 1.3. In addition, the “In vivo relative invation” value in experiment [1] is given as 1.112.

Take `O=C(CNC(=O)c1cccc(CN2CCC(N3CCCCC3)CC2)c1)c1ccccc1` [Example 237, 3-([1,4′-bipiperidin]-1′-ylmethyl)-N-(2-oxo-2-phenylethyl)benzamide]: the fold induction at 1 µM with KAI1 promoter turned out to be 1.56. Besides, the “In vivo relative invation” value in experiment [1] turned out to be 1.114.

In the case of `O=C(CNC(=O)c1cccc(CN2CCN(c3ccc([N+](=O)[O-])cc3)CC2)c1)c1ccccc1` [Example 238, 3-((4-(4-nitrophenyl)piperazin-1-yl)methyl)-N-(2-oxo-2-phenylethyl)benzamide], the fold induction at 1 µM with KAI1 promoter was 1.6. Further, the “In vivo relative invation” value in experiment [1] was found to be 1.12.

As for `CCN(Cc1cccc(C(=O)NCC(=O)c2ccccc2)c1)c1ccccc1` [Example 239, 3-((ethyl(phenyl)amino)methyl)-N-(2-oxo-2-phenylethyl)benzamide], the fold induction at 1 µM with KAI1 promoter worked out at 1.08. Further, the “In vivo relative invation” value in experiment [1] is reported as 1.135.

Turning to `O=C(CNC(=O)c1cccc(CN2CCN(c3ccccn3)CC2)c1)c1ccccc1` [Example 240, N-(2-oxo-2-phenylethyl)-3-((4-(pyridin-2-yl)piperazin-1-yl)methyl)benzamide], in the experiment on KAI1 promoter, the fold induction at 1 µM was 1.3. Besides, the “In vivo relative invation” value in experiment [1] was found to be 1.1.

As for `C=CCN(CC=C)Cc1cccc(C(=O)NCC(=O)c2ccccc2)c1` [Example 241, 3-((diallylamino)methyl)-N-(2-oxo-2-phenylethyl)benzamide], the fold induction at 1 µM in the experiment with KAI1 promoter came to 1.1. Moreover, the “In vivo relative invation” value in experiment [1] is on record as 1.126.

Take `CN(Cc1ccccc1)Cc1cccc(C(=O)NCC(=O)c2ccccc2)c1` [Example 242, 3-((benzyl(methyl)amino)methyl)-N-(2-oxo-2-phenylethyl)benzamide]: the fold induction at 1 µM in the experiment on KAI1 promoter amounted to 1.17. In addition, in experiment [1], the “In vivo relative invation” value is reported as 1.146.

With `CN(CCO)Cc1cccc(C(=O)NCC(=O)c2ccccc2)c1` [Example 243, 3-(((2-hydroxyethyl) (methyl)amino)methyl)-N-(2-oxo-2-phenylethyl)benzamide], the fold induction at 1 µM with KAI1 promoter was 1.48. Also, in experiment [1], the “In vivo relative invation” value came out at 1.105.

Turning to `CCCCN(CCO)Cc1cccc(C(=O)NCC(=O)c2ccccc2)c1` [Example 244, 3-((butyl (2-hydroxyethyl)amino)methyl)-N-(2-oxo-2-phenylethyl)benzamide], the fold induction at 1 µM with KAI1 promoter was found to be 1.51. Further, the “In vivo relative invation” value in experiment [1] worked out at 1.1.

In the case of `CC(C)(C)OC(=O)N1CCN(Cc2cccc(C(=O)NCC(=O)c3ccccc3)c2)CC1` [Example 245, tert-butyl 4-(3-((2-oxo-2-phenylethyl)carbamoyl)benzyl) piperazine-1-carboxylate], in the experiment with KAI1 promoter, the fold induction at 1 µM was found to be 1.35. In experiment [1], the “In vivo relative invation” value was determined as 1.126.

Consider `CCCCN(C)Cc1cccc(C(=O)NCC(=O)c2ccccc2)c1` [Example 246, 3-((butyl (methyl)amino)methyl)-N-(2-oxo-2-phenylethyl)benzamide], for which the fold induction at 1 µM in the experiment with KAI1 promoter is 1.88. Further, the “In vivo relative invation” value in experiment [1] turned out to be 1.148.
